From patent US20080195024A1, “Treating Disorders Associated with Inflammation” (priority 2005, published 2008)

Tests used:
[1] = Solubility of ANGD in luminal fluid; format: physicochemical; settings: with or without glucose; white precipitate formed
Source text: (§1) To determine if enzyme inhibition could prevent the generation of cytotoxic mediators from luminal contents, luminal fluids were pre-filtered through three glass fiber filters in series, a procedure that reduces cytotoxic activity, allowing the experiments to be focused solely on new cytotoxic mediator formation. […] The precipitate was separated following the digestion period and the supernatant collected. All samples were then aliquotted and frozen for later measurements of protease activity and neutrophil cytotoxicity.

[2] = test system: digestive enzymes in luminal contents; experiment: Protease activity of wall homogenates digested with filtered luminal fluid with or without protease inhibitors; format: biochemical, rat; settings: filtered luminal fluid plus inhibitor incubated with wall homogenates 3 hours at 37° C.; final 1 mM PMSF, 1.25 mg/ml (2.31 mM) ANGD
Source text: as §1

human neutrophils = experiment: Flow cytometric analysis of neutrophil cytotoxicity (PI cell death, forward scatter); format: cell-based; settings: for increase in forward scatter: pancreatic proteases alone; for cytotoxicity to neutrophils: pure proteases at the tested concentrations
Experimental: Cytotoxicity measurement—flow cytometric analysis of neutrophil cytotoxicity: For measurements of cell death and forward scatter (a measure of cell “size”) by flow cytometry, 100 μl of sample were mixed with 100 μl of cells (10^6 cells/ml final) and after selected periods of incubation, a life/death indicator (200 μl of 2 μM propidium iodide, PI) was added. Within seconds of PI addition, the sample was tested in a flow cytometer (Beckton-Dickson FACScan; Franklin Lakes N.J.).
Flow cytometric analysis of neutrophils was carried out by plotting forward scatter (FSC) on the ordinate and FL-2 (PI fluorescence) on the abscissa. […] Two regions on the scatter plot were gated. Region 1 (R1) was for live cells, and was constructed to monitor an increase in cell size that results from bleb formation and also to observe the small uptake of PI that occur may prior to total membrane failure. […] Ten thousand cells were evaluated per sample. Cell death was reported as the percentage of total cells located in R2, i.e., Death=100%*(# in R2)/(# in R1+# in R2).

casein = experiment: Protease activity measurement (Enzcheck casein kit) of proteases, homogenates and luminal fluids; format: biochemical; settings: mixed with equal volume of PBS; fluorescence after 90 minutes; mean±SD, N=6
Experimental: In vitro studies of intestinal wall homogenate digested with proteases—enzymatic digestion of wall homogenates: Wall homogenates were rapidly thawed at 37° C. and mixed with equal volumes of PBS, TPCK-treated trypsin, TLCK-treated chymotrypsin, or elastase. Controls of the proteases alone also were created by mixing them with equal volumes of PBS. Since lower grades of trypsin are often contaminated with the activity of chymotrypsin and vice versa, trypsin pretreated with TPCK (a specific chymotrypsin inhibitor) and chymotrypsin pretreated with TLCK (a trypsin inhibitor) were used to reduce any effects of cross contamination. Before mixing with wall homogenate, the enzymes were reconstituted in PBS at the following concentrations: 1 mg/ml for TPCK-treated trypsin, 1 mg/ml for TLCK-treated chymotrypsin, and 0.5 mg/ml for elastase.
The groups were treated as follows: the luminal fluids from 5 animals were incubated separately (37° C., 3 hours) and aliquots of each sample were collected. One aliquot was filtered through 4 glass fiber pre-filters in series. The unfiltered and filtered aliquots were mixed with equal volumes of PBS (to generate the Lumen and Filtered Lumen groups, respectively) or with wall homogenate from the same animal (to generate the Wall+Lumen and Wall+Filtered Lumen groups, respectively). The Wall group was prepared by mixing wall homogenates with equal volumes of PBS. All samples were incubated at 37° C. for 3 additional hours, aliquotted, and frozen (−70° C.) for later evaluation of neutrophil cytotoxicity and protease activity.

[3] = wall homogenates digested with filtered luminal fluid with inhibitor, exposure 20, 30 or 40 minutes

Row | Compound | solubility in the luminal fluid [1] | protease activity inhibited in the digested homogenates [2] | neutrophil cell death (human neutrophils; [3]) | neutrophil forward scatter (human neutrophils; [3]) | cytotoxicity compared to samples without PMSF (human neutrophils; PMSF added after digestion of wall homogenate by chymotrypsin, not statistically significant) | neutrophil cell death (human neutrophils; PMSF added prior to digestion of wall homogenate by chymotrypsin) | increase in forward scatter (human neutrophils) | cytotoxicity to neutrophils (human neutrophils) | protease activity (casein)
1 | CS(=O)(=O)O.CS(=O)(=O)O.N=C(N)Nc1ccc(C(=O)Oc2ccc3cc(C(=N)N)ccc3c2)cc1 [ANGD, 6-amidino-2-naphthyl p-guanidinobenzoate dimethanesulfonate] | not completely soluble | less effective | significantly decrease the cell death compared to controls | prevented the large increase in forward scatter | – | – | – | – | –
2 | O=S(=O)(F)Cc1ccccc1 [PMSF, phenylmethylsulfonyl fluoride] | – | approximately half | Neither PMSF nor ANGD alone entirely prevented cell death | – | slightly increased cytotoxicity | no cell death | – | – | –
3 | chymotrypsin | – | – | – | – | – | – | significantly elevated at 90 minutes | not cytotoxic | 2371±230 RFU
4 | elastase: pancreatic elastase from Worthington Biochemicals, 0.5 mg/ml in PBS | – | – | – | – | – | – | greatest increase | not cytotoxic | 2389±300 RFU
5 | trypsin | – | – | – | – | – | – | no significant effect | not cytotoxic | 300±33 RFU
